Test results published in paper PMC8779631, “Binding Properties of Odorant-Binding Protein 4 of Tirathaba rufivena to Areca catechu Volatiles” (Plants, 2022).

How the values were obtained:
TrufOBP4 [1] = test: Fluorescence competitive binding assay (displacement of 1-NPN); design: species or system Tirathaba rufivena; conditions: 2 μM protein, 50 mM Tris-HCl pH 7.4; for Ki: Ki = IC50/(1 + [1-NPN]/K1-NPN); for IC50: ligand concentration displacing 50% of 1-NPN
Procedure: (§1) The binding ability of purified recombinant OBPs was evaluated with an F-7000 fluorescence spectrometer (Hitachi, Tokyo, Japan). The fluorescence spectra were recorded between 360 and 650 nm. N-Phenyl-1-naphthylamine (1-NPN) was selected as the fluorescent reporter and dissolved in chromatographic methanol at a concentration of 1 mM. The purified TrufOBP4 was dissolved in 50 mM Tris-HCl (pH 7.4) at a final concentration of 2 μM. The data for the 1-NPN-TrufOBP4 complex formation were obtained by titration of 2 μM protein with increasing concentrations (2 to 20 μM) of 1-NPN. The dissociation constant of 1-NPN (K1-NPN) was calculated using Prism 8 (GraphPad Software, San Diego, USA). To evaluate the binding ability of TrufOBP4 with volatiles, 1-NPN was replaced with different odor compounds from the TrufOBP4/1-NPN complex. The odor ligands were dissolved in chromatographic methanol at a concentration of 1 mM and added as aliquots to the protein solution. The spectral results were obtained, and the dissociation constants of the competitors were calculated with the formula: Ki = IC50/(1 + [1-NPN]/K1-NPN), where 1-NPN represents the free concentration of 1-NPN, and IC50 represents the ligand concentration displacing 50% of the fluorescent reporter.

LsatOBP1 = system: LsatOBP1; design: method as in PMID 11274212; conditions: cited from earlier work
PregOBP56a = system: PregOBP56a; design: method as in PMID 23326317; conditions: cited from earlier work
MbraPBP1 = system: MbraPBP1; design: method as in PMID 11274212; conditions: cited from earlier work
TrufOBP4 [2] = test: Binding of fluorescent reporter 1-NPN (titration, Scatchard plot); design: species or system Tirathaba rufivena; conditions: 2 μM protein titrated with 2 to 20 μM 1-NPN; read-out: K1-NPN (dissociation constant of 1-NPN)
Procedure: as §1

AipsGOBP2 = system: AipsGOBP2; design: method as in PMID 29778539, PMID 29543772; conditions: cited from earlier work
Hyphantria cunea = system: Hyphantria cunea; design: method as in PMID 32547409; conditions: stimulation with the compound; cited from earlier work
Rhyzopertha dominica = system: Rhyzopertha dominica; design: method as in earlier work; conditions: cited from earlier work
Tribolium castaneum = system: Tribolium castaneum; design: method as in earlier work; conditions: cited from earlier work
Holotrichia oblita = system: Holotrichia oblita; design: method as in earlier work; conditions: cited from earlier work
EoblGOBP2 = system: EoblGOBP2; design: method as in PMID 29778539, PMID 29543772; conditions: cited from earlier work

| Compound | Ki (TrufOBP4 [1]) | IC50 (TrufOBP4 [1]) | other results |
| --- | --- | --- | --- |
| C=CC(C)(O)CCC=C(C)C (stereo not drawn) [Linalol] | > 50 µM | > 50 µM |  |
| C=C(C)[C@H]1CC=C(C)CC1 [(R)-(+)-limonene] | 22.1 µM | 25.3 µM |  |
| CC(=O)OCCC(C)C [Isoanyl acetate] | 21 µM | 24.1 µM |  |
| C=C(C)[C@@H]1CC=C(C)CC1 [(S)-(−)-Limonene] | 29.1 µM | 33.4 µM |  |
| CCCCCCCCCCCCCCCC(=O)O [Palmitic acid] | 5.28 µM | 6.06 µM | binding (LsatOBP1): bind well; binding affinity (PregOBP56a): high binding affinity; binding (MbraPBP1): bind well |
| COC(=O)c1ccccc1O [Methyl salicylate] | > 50 µM | > 50 µM |  |
| c1ccc(Nc2cccc3ccccc23)cc1 [1-NPN, N-Phenyl-1-naphthylamine] |  |  | Kd (TrufOBP4 [2]): 6.79 µM |
| CCCCCCCC/C=C\CCCCCCCC(=O)O [oleic] |  |  | binding affinity (PregOBP56a): high binding affinity |
| CCCCC(CC)CO (stereo not drawn) [2-Ethylhexanol] | 21 µM | 24.1 µM |  |
| CCCCOC(=O)c1ccccc1C(=O)OCCCC [Dibutyl phthalate] | 4.61 µM | 5.29 µM | binding affinity (AipsGOBP2): outstanding binding affinity; mating rates (Hyphantria cunea): significantly increased; effect on behavior (Rhyzopertha dominica): repellent; effect on behavior (Tribolium castaneum): repellent; effect on behavior (Holotrichia oblita): attractive effect; binding affinity (EoblGOBP2): outstanding binding affinity |
| CCCCC/C=C\C/C=C\CCCCCCCC(=O)O [linoleic] |  |  | binding affinity (PregOBP56a): high binding affinity |
| C=CC(=C)CCC=C(C)C [Myrcene] | 17.3 µM | 19.8 µM |  |
| CC1=CCC2C(C1)C2(C)C (stereo not drawn) [3-Carene] | 19.5 µM | 22.4 µM |  |
| CCCCCCCCCCCCCCCCCC(=O)O [stearic] |  |  | binding affinity (PregOBP56a): high binding affinity |
| C=Cc1ccccc1 [Styrene] | 36.2 µM | 41.5 µM |  |
| C=C1CCC2CC1C2(C)C (stereo not drawn) [β-Pinene] | 29 µM | 33.3 µM |  |
| CCC=CCCOC(C)=O [3-Hexenyl acetate] | 40.6 µM | 46.6 µM |  |
| CCCCC(CC)COC(=O)C=Cc1ccc(OC)cc1 (stereo not drawn) [Octyl methoxycinnamate] | 1.16 µM | 1.33 µM |  |
| C=C(C)[C@H]1CC=C(C)CC1 [Cinene] | > 50 µM | > 50 µM |  |
| CCCCCCCCCCCCCC(=O)O [Myristic acid] | 3.52 µM | 4.04 µM |  |
| CCCCCCOC(C)=O [Hexyl acetate] | > 50 µM | > 50 µM |  |
| CC12CCC(CC1)C(C)(C)O2 [Cineole] | > 50 µM | > 50 µM |  |
| CCC(C)C(=O)OCCC(C)C (stereo not drawn) [3-Methylbutyl 2-methylbutanoate] | 45.8 µM | > 50 µM |  |
